{"source": "the NIST ThermoML archive (doi:10.1021/je034048e)", "key": {"[1]": {"settings": "for molar entropy: 101.33 kPa, Small (less than 1 g) adiabatic calorimetry"}, "[2]": {"test": "Molar enthalpy of transition or fusion", "settings": "Crystal; Adiabatic calorimetry"}}, "note": "± gives the expanded uncertainty stated by the source.", "data": [{"smiles": "CCCCCCCC/C=C/CCCCCCCC(=O)OCC(COC(=O)CCCCCCC/C=C/CCCCCCCC)OC(=O)CCCCCCC/C=C/CCCCCCCC", "note": "[trielaidin]", "values": [{"measurement": "molar entropy", "setting": "[1]; 20 K, Crystal", "value": "26.56 ± 8.9", "unit": "J/K/mol"}, {"measurement": "molar entropy", "setting": "[1]; 20 K, Metastable crystal", "value": "61.98 ± 8.9", "unit": "J/K/mol"}, {"measurement": "molar entropy", "setting": "[1]; 25 K, Crystal", "value": "44.27 ± 8.9", "unit": "J/K/mol"}, {"measurement": "molar entropy", "setting": "[1]; 25 K, Metastable crystal", "value": "88.54 ± 8.9", "unit": "J/K/mol"}, {"measurement": "molar entropy", "setting": "[1]; 30 K, Crystal", "value": "70.83 ± 8.9", "unit": "J/K/mol"}, {"measurement": "molar entropy", "setting": "[1]; 30 K, Metastable crystal", "value": "115.11 ± 8.9", "unit": "J/K/mol"}, {"measurement": "molar entropy", "setting": "[1]; 35 K, Crystal", "value": "97.4 ± 8.9", "unit": "J/K/mol"}, {"measurement": "molar entropy", "setting": "[1]; 35 K, Metastable crystal", "value": "141.67 ± 8.9", "unit": "J/K/mol"}, {"measurement": "molar entropy", "setting": "[1]; 40 K, Crystal", "value": "132.81 ± 8.9", "unit": "J/K/mol"}, {"measurement": "molar entropy", "setting": "[1]; 40 K, Metastable crystal", "value": "177.09 ± 8.9", "unit": "J/K/mol"}, {"measurement": "molar entropy", "setting": "[1]; 45 K, Crystal", "value": "168.23 ± 8.9", "unit": "J/K/mol"}, {"measurement": "molar entropy", "setting": "[1]; 45 K, Metastable crystal", "value": "212.5 ± 8.9", "unit": "J/K/mol"}, {"measurement": "molar entropy", "setting": "[1]; 50 K, Crystal", "value": "194.8 ± 8.9", "unit": "J/K/mol"}, {"measurement": "molar entropy", "setting": "[1]; 50 K, Metastable crystal", "value": "239.07 ± 8.9", "unit": "J/K/mol"}, {"measurement": "molar entropy", "setting": "[1]; 55 K, Crystal", "value": "230.21 ± 8.9", "unit": "J/K/mol"}, {"measurement": "molar entropy", "setting": "[1]; 55 K, Metastable crystal", "value": "274.48 ± 8.9", "unit": "J/K/mol"}, {"measurement": "molar entropy", "setting": "[1]; 60 K, Crystal", "value": "265.63 ± 8.9", "unit": "J/K/mol"}, {"measurement": "molar entropy", "setting": "[1]; 60 K, Metastable crystal", "value": "309.9 ± 8.9", "unit": "J/K/mol"}, {"measurement": "molar entropy", "setting": "[1]; 65 K, Crystal", "value": "301.05 ± 8.9", "unit": "J/K/mol"}, {"measurement": "molar entropy", "setting": "[1]; 65 K, Metastable crystal", "value": "345.32 ± 8.9", "unit": "J/K/mol"}, {"measurement": "molar entropy", "setting": "[1]; 70 K, Crystal", "value": "327.61 ± 8.9", "unit": "J/K/mol"}, {"measurement": "molar entropy", "setting": "[1]; 70 K, Metastable crystal", "value": "380.74 ± 8.9", "unit": "J/K/mol"}, {"measurement": "molar entropy", "setting": "[1]; 75 K, Crystal", "value": "363.03 ± 8.9", "unit": "J/K/mol"}, {"measurement": "molar entropy", "setting": "[1]; 75 K, Metastable crystal", "value": "416.15 ± 18", "unit": "J/K/mol"}, {"measurement": "molar entropy", "setting": "[1]; 80 K, Crystal", "value": "398.44 ± 8.9", "unit": "J/K/mol"}, {"measurement": "molar entropy", "setting": "[1]; 80 K, Metastable crystal", "value": "451.57 ± 18", "unit": "J/K/mol"}, {"measurement": "molar entropy", "setting": "[1]; 85 K, Crystal", "value": "433.86 ± 18", "unit": "J/K/mol"}, {"measurement": "molar entropy", "setting": "[1]; 85 K, Metastable crystal", "value": "486.99 ± 18", "unit": "J/K/mol"}, {"measurement": "molar entropy", "setting": "[1]; 90 K, Crystal", "value": "460.42 ± 18", "unit": "J/K/mol"}, {"measurement": "molar entropy", "setting": "[1]; 90 K, Metastable crystal", "value": "513.55 ± 18", "unit": "J/K/mol"}, {"measurement": "molar entropy", "setting": "[1]; 95 K, Crystal", "value": "495.84 ± 18", "unit": "J/K/mol"}, {"measurement": "molar entropy", "setting": "[1]; 95 K, Metastable crystal", "value": "548.97 ± 18", "unit": "J/K/mol"}, {"measurement": "molar entropy", "setting": "[1]; 100 K, Crystal", "value": "531.26 ± 18", "unit": "J/K/mol"}, {"measurement": "molar entropy", "setting": "[1]; 100 K, Metastable crystal", "value": "584.39 ± 18", "unit": "J/K/mol"}, {"measurement": "molar entropy", "setting": "[1]; 105 K, Crystal", "value": "557.82 ± 18", "unit": "J/K/mol"}, {"measurement": "molar entropy", "setting": "[1]; 105 K, Metastable crystal", "value": "619.8 ± 18", "unit": "J/K/mol"}, {"measurement": "molar entropy", "setting": "[1]; 110 K, Crystal", "value": "593.24 ± 18", "unit": "J/K/mol"}, {"measurement": "molar entropy", "setting": "[1]; 110 K, Metastable crystal", "value": "646.37 ± 18", "unit": "J/K/mol"}, {"measurement": "molar entropy", "setting": "[1]; 120 K, Crystal", "value": "646.37 ± 18", "unit": "J/K/mol"}, {"measurement": "molar entropy", "setting": "[1]; 120 K, Metastable crystal", "value": "708.35 ± 18", "unit": "J/K/mol"}, {"measurement": "molar entropy", "setting": "[1]; 130 K, Crystal", "value": "708.35 ± 18", "unit": "J/K/mol"}, {"measurement": "molar entropy", "setting": "[1]; 130 K, Metastable crystal", "value": "770.33 ± 27", "unit": "J/K/mol"}, {"measurement": "molar entropy", "setting": "[1]; 140 K, Crystal", "value": "770.33 ± 27", "unit": "J/K/mol"}, {"measurement": "molar entropy", "setting": "[1]; 140 K, Metastable crystal", "value": "832.31 ± 27", "unit": "J/K/mol"}, {"measurement": "molar entropy", "setting": "[1]; 150 K, Crystal", "value": "823.45 ± 27", "unit": "J/K/mol"}, {"measurement": "molar entropy", "setting": "[1]; 150 K, Metastable crystal", "value": "894.29 ± 27", "unit": "J/K/mol"}, {"measurement": "molar entropy", "setting": "[1]; 160 K, Crystal", "value": "876.58 ± 27", "unit": "J/K/mol"}, {"measurement": "molar entropy", "setting": "[1]; 160 K, Metastable crystal", "value": "947.41 ± 27", "unit": "J/K/mol"}, {"measurement": "molar entropy", "setting": "[1]; 170 K, Crystal", "value": "929.7 ± 27", "unit": "J/K/mol"}, {"measurement": "molar entropy", "setting": "[1]; 170 K, Metastable crystal", "value": "1009.4 ± 35", "unit": "J/K/mol"}, {"measurement": "molar entropy", "setting": "[1]; 180 K, Crystal", "value": "982.83 ± 27", "unit": "J/K/mol"}, {"measurement": "molar entropy", "setting": "[1]; 180 K, Metastable crystal", "value": "1062.5 ± 35", "unit": "J/K/mol"}, {"measurement": "molar entropy", "setting": "[1]; 190 K, Crystal", "value": "1036 ± 35", "unit": "J/K/mol"}, {"measurement": "molar entropy", "setting": "[1]; 190 K, Metastable crystal", "value": "1124.5 ± 35", "unit": "J/K/mol"}, {"measurement": "molar entropy", "setting": "[1]; 200 K, Crystal", "value": "1089.1 ± 35", "unit": "J/K/mol"}, {"measurement": "molar entropy", "setting": "[1]; 200 K, Metastable crystal", "value": "1177.6 ± 35", "unit": "J/K/mol"}, {"measurement": "molar entropy", "setting": "[1]; 210 K, Crystal", "value": "1142.2 ± 35", "unit": "J/K/mol"}, {"measurement": "molar entropy", "setting": "[1]; 210 K, Metastable crystal", "value": "1239.6 ± 35", "unit": "J/K/mol"}, {"measurement": "molar entropy", "setting": "[1]; 220 K, Crystal", "value": "1186.5 ± 35", "unit": "J/K/mol"}, {"measurement": "molar entropy", "setting": "[1]; 220 K, Metastable crystal", "value": "1301.6 ± 35", "unit": "J/K/mol"}, {"measurement": "molar entropy", "setting": "[1]; 230 K, Crystal", "value": "1239.6 ± 35", "unit": "J/K/mol"}, {"measurement": "molar entropy", "setting": "[1]; 230 K, Metastable crystal", "value": "1363.6 ± 44", "unit": "J/K/mol"}, {"measurement": "molar entropy", "setting": "[1]; 240 K, Crystal", "value": "1292.7 ± 35", "unit": "J/K/mol"}, {"measurement": "molar entropy", "setting": "[1]; 240 K, Metastable crystal", "value": "1425.5 ± 44", "unit": "J/K/mol"}, {"measurement": "molar entropy", "setting": "[1]; 250 K, Crystal", "value": "1337 ± 44", "unit": "J/K/mol"}, {"measurement": "molar entropy", "setting": "[1]; 250 K, Metastable crystal", "value": "1487.5 ± 44", "unit": "J/K/mol"}, {"measurement": "molar entropy", "setting": "[1]; 260 K, Crystal", "value": "1390.1 ± 44", "unit": "J/K/mol"}, {"measurement": "molar entropy", "setting": "[1]; 260 K, Metastable crystal", "value": "1549.5 ± 44", "unit": "J/K/mol"}, {"measurement": "molar entropy", "setting": "[1]; 270 K, Crystal", "value": "1443.3 ± 44", "unit": "J/K/mol"}, {"measurement": "molar entropy", "setting": "[1]; 270 K, Metastable crystal", "value": "1611.5 ± 53", "unit": "J/K/mol"}, {"measurement": "molar entropy", "setting": "[1]; 280 K, Crystal", "value": "1496.4 ± 44", "unit": "J/K/mol"}, {"measurement": "molar entropy", "setting": "[1]; 280 K, Metastable crystal", "value": "1673.5 ± 53", "unit": "J/K/mol"}, {"measurement": "molar entropy", "setting": "[1]; 288 K, Crystal", "value": "1531.8 ± 44", "unit": "J/K/mol"}, {"measurement": "molar entropy", "setting": "[1]; 288 K, Metastable crystal", "value": "1726.6 ± 53", "unit": "J/K/mol"}, {"measurement": "molar entropy", "setting": "[1]; 290 K, Crystal", "value": "1549.5 ± 44", "unit": "J/K/mol"}, {"measurement": "molar entropy", "setting": "[1]; 298.15 K, Crystal", "value": "1593.8 ± 44", "unit": "J/K/mol"}, {"measurement": "molar entropy", "setting": "[1]; 300 K, Crystal", "value": "1602.6 ± 53", "unit": "J/K/mol"}, {"measurement": "molar entropy", "setting": "[1]; 310 K, Crystal", "value": "1655.8 ± 53", "unit": "J/K/mol"}, {"measurement": "molar entropy", "setting": "[1]; 314.83 K, Crystal", "value": "1673.5 ± 53", "unit": "J/K/mol"}, {"measurement": "molar entropy", "setting": "[1]; 314.83 K, Liquid", "value": "2204.7 ± 71", "unit": "J/K/mol"}, {"measurement": "molar entropy", "setting": "[1]; 320 K, Liquid", "value": "2213.6 ± 71", "unit": "J/K/mol"}, {"measurement": "molar entropy", "setting": "[1]; 330 K, Liquid", "value": "2275.6 ± 71", "unit": "J/K/mol"}, {"measurement": "Triple point temperature", "setting": "[1]; Crystal, Adiabatic calorimetry", "value": "314.83 ± 1", "unit": "K"}, {"measurement": "Molar enthalpy of transition or fusion", "setting": "[2]", "value": "37.5 ± 0.765", "unit": "kcal/mol"}]}]}
